Experimental data as given in US10975412B2, “Method for designing compounds and compositions useful for targeting high stoichiometric complexes to treat conditions, including treatment of viruses, bacteria, and cancers having acquired drug resistance” (priority 2015, dated 2021).
Like-named read-outs stand apart in the source and are kept apart here.

Biological target: T1, phi29 DNA packaging motor (Bacillus phage phi29, UniProt P11014)
T1 construct: made in house
Assay type: biochemical, bacteriophage phi29
Details: for inhibition effect in viral assembly: adding 20% of the drugged/mutant component to the wild-type component
Procedure: (§1) Purified components were subjected to in vitro viral assembly assay as described previously. Briefly, 10 μg of purified procapsids were mixed with 100 ng of pRNA in 5 μl of reaction buffer (10 mM ATP, 6 mM 2-mercaptoethanol, and 3 mM spermidine in TMS buffer) at room temperature for 30 min. Purified DNA-gp3 and gp16 were then added and the reaction mixture was incubated at room temperature for one hour to initiate DNA packaging. Finally, the DNA filled procapsids were incubated with 10 μl of gp8.5-9 extract from E. coli containing plasmid pARgp8.5-9 and 20 μl of gp11-14 extract from E. coli to complete the infectious phage assembly.
The newly assembled infectious viruses were plated with inoculated B. subtilis bacteria Su^+44 cells onto a half LB plate covered with top agar. After 12 hour incubation at 37° C., the viral assembly efficiency (plaque-forming unit, PFU) was calculated by counting the formed plaque numbers.
as §1

T1 sequence (P11014 whole entry): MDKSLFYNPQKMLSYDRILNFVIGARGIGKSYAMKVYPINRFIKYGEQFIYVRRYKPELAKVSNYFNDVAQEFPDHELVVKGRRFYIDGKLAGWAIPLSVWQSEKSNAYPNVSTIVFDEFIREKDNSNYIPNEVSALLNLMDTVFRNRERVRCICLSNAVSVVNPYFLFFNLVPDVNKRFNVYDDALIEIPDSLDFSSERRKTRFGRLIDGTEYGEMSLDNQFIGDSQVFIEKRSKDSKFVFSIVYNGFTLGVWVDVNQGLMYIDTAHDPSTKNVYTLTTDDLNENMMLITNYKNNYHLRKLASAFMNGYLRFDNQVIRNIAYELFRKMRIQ

Nc1ncnc2c1ncn2[C@@H]1O[C@H](COP(=O)(O)OP(=O)(O)OP(O)(O)=S)[C@@H](O)[C@H]1O [γ-S-ATP]
inhibition effect in viral assembly: almost completely inhibited
inhibition effect in viral assembly (listed as gamma-s-ATP): nearly completely inhibited
comparison of virus assembly inhibition effect between drugged components (targets ATP, pRNA, ATPase gp16, DNA with stoichiometry 10000, 6, 6, 1): strongest inhibition effect
